Results from patent publication US8841312B2, “Fused pyridine, pyrimidine and triazine compounds as cell cycle inhibitors” (Amgen Inc., priority 2007, dated 2014).

Tests used:
Cdk4/CyclinD1 = Cdk4/CyclinD1 (Homo sapiens (Human), UniProt P11802); assay: Cdk4 kinase inhibition assay with recombinant Cdk4/CyclinD1, Rb substrate, [33P]-ATP filter plate; type: biochemical; details: 25 μM ATP, read-out: Cdk 4 IC50
How it was run: (§1)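 Recombinant Cdk4/CyclinD1 or Cdk6/CyclinD3 phosphorylated Rb protein with [33P]-ATP for 1 h at room temperature. Protein was TCA-precipitated on filter plates and bound radioactivity counted. IC50 by nonlinear regression.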

Cdk6/CyclinD3 = Cdk6/CyclinD3 (Homo sapiens (Human), UniProt Q00534); assay: Cdk6 kinase inhibition assay with recombinant Cdk6/CyclinD3, Rb substrate, [33P]-ATP filter plate; type: biochemical; details: 25 μM ATP, read-out: Cdk 6 IC50
Chain of Cdk6/CyclinD3 (Q00534 whole entry): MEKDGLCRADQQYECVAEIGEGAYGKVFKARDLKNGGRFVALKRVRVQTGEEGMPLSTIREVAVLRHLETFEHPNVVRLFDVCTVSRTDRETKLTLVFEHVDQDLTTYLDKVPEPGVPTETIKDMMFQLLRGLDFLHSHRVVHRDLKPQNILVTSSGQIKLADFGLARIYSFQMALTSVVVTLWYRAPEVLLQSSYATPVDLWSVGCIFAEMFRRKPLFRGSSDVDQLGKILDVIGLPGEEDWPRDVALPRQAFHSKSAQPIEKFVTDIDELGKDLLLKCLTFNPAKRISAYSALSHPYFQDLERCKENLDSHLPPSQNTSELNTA
Chain of Cdk6/CyclinD3 (P30281 whole entry partner): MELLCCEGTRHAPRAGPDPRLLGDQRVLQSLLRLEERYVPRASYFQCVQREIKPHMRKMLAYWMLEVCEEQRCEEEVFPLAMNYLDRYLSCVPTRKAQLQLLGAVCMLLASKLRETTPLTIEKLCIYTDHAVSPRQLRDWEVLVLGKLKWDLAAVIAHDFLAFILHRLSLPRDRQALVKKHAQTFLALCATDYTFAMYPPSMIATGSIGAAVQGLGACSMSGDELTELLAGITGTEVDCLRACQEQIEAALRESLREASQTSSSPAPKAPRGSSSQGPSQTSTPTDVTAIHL
How it was run: as §1

Chain of Cdk4/CyclinD1 (P11802 whole entry): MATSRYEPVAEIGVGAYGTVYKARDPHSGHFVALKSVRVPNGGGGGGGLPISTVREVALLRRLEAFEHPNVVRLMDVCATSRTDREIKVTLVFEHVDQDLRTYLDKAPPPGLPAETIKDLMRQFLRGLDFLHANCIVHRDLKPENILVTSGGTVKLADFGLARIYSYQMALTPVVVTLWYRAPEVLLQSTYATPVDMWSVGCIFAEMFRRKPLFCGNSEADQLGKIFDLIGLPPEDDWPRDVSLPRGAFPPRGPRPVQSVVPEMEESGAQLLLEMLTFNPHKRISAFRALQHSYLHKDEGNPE
Chain of Cdk4/CyclinD1 (P24385 whole entry partner): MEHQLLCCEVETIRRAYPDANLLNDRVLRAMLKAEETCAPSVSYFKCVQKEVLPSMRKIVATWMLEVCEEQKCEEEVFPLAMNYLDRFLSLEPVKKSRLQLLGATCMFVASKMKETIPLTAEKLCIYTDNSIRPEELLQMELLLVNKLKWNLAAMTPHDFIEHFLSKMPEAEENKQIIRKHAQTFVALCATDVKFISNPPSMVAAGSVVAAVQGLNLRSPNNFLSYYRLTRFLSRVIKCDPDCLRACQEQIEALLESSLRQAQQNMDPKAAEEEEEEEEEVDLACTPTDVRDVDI

Question: With `CN(C)C1CCN(c2ccc(Nc3ncc4c5ccncc5n(CCCO)c4n3)nc2)CC1` [Example 350] as the compound, how does the IC50 (Cdk4/CyclinD1) read?
Answer: 74 nM

Question: And the IC50 (Cdk6/CyclinD3)?
Answer: 102 nM

Question: Which IC50 (Cdk4/CyclinD1) does the source give for `C[C@@H](O)CNc1ccc(Nc2ncc3c4ccncc4n(C4CCCC4)c3n2)nn1` [Example 293] here?
Answer: 4.6 nM

Question: What about the IC50 (Cdk6/CyclinD3) of the same compound?
Answer: 16 nM

Question: Which results are given for `c1ccc2c(c1)CCC2n1c2cnccc2c2cnc(Nc3ccc(N4CCNCC4)cn3)nc21` (centres unmarked) [Example 25, (9-Indan-1-yl-9H-pyrido[4′,3′:4,5]pyrrolo[2,3-d]pyrimidin-2-yl)-(5-piperazin-1-yl-pyridin-2-yl)-amine]?
Answer: IC50 (Cdk4/CyclinD1): 30 nM; IC50 (Cdk6/CyclinD3): 38 nM

Question: For `O=C(O)CNC1CCN(c2ccc(Nc3ncc4c5ccncc5n(C5CCCC5)c4n3)nc2)CC1` [Example 477], which IC50 (Cdk4/CyclinD1) is on record?
Answer: 2 nM

Question: What about the IC50 (Cdk6/CyclinD3) of the same compound?
Answer: 5.1 nM

Question: Which results are given for `COCCn1c2cnccc2c2cnc(Nc3ccc(N4CCC(N(C)C)CC4)cn3)nc21` [Example 314]?
Answer: IC50 (Cdk4/CyclinD1): 380 nM; IC50 (Cdk6/CyclinD3): 1500 nM

Question: Which results are given for `CCC(CC)n1c2cnccc2c2cnc(Nc3ccc(N4CC[C@@H](O)C4)nn3)nc21` [Example 162, (3R)-1-(6-((9-(1-Ethylpropyl)-9H-pyrido[4′,3′:4,5]pyrrolo[2,3-d]pyrimidin-2-yl)-amino)-3-pyridazinyl)-3-pyrrolidinol]?
Answer: IC50 (Cdk4/CyclinD1): 10000 nM; IC50 (Cdk6/CyclinD3): 110 nM

Question: For `CC1CN(c2ccc(Nc3ncc4c5ccccc5n(C5CCCC5)c4n3)nc2)CC(C)N1` (centres unmarked) [Example 303], which IC50 (Cdk4/CyclinD1) is on record?
Answer: 31 nM

Question: And the IC50 (Cdk6/CyclinD3)?
Answer: 30 nM

Question: With `CN(C)[C@H]1CCN(c2ccc(Nc3ncc4c5ccncc5n(C5CCCC5)c4n3)nc2)C1` [Example 288] as the compound, how does the IC50 (Cdk4/CyclinD1) read?
Answer: 14 nM

Question: What about the IC50 (Cdk6/CyclinD3) of the same compound?
Answer: 40 nM

Question: For `c1cc2c3cnc(Nc4ccc(NC5CCNCC5)cn4)nc3n(C3CCCC3)c2cn1` [Example 69], which IC50 (Cdk4/CyclinD1) is on record?
Answer: 17 nM

Question: What about the IC50 (Cdk6/CyclinD3) of the same compound?
Answer: 31 nM

Question: Which IC50 (Cdk4/CyclinD1) does the source give for `CN(C)C1CCN(c2ccc(Nc3ncc4c5ccncc5n(C5CCC5)c4n3)nc2)CC1` [Example 341] here?
Answer: 21 nM

Question: And the IC50 (Cdk6/CyclinD3)?
Answer: 16 nM

Question: What does the source list for `c1cc(-c2ccc(Nc3ncc4c5ccncc5n(C5CCCC5)c4n3)nn2)ccn1` [Example 259, 9-cyclopentyl-N-(6-(4-pyridinyl)-3-pyridazinyl)-9H-pyrido[4′,3′:4,5]pyrrolo[2,3-d]pyrimidin-2-amine]?
Answer: IC50 (Cdk4/CyclinD1): 49 nM; IC50 (Cdk6/CyclinD3): 101 nM

Question: With `CC(C)NC1CCN(c2ccc(Nc3ncc4c5ccncc5n(C5CCCC5)c4n3)nc2)CC1` [Example 469] as the compound, how does the IC50 (Cdk4/CyclinD1) read?
Answer: 5.7 nM

Question: What about the IC50 (Cdk6/CyclinD3) of the same compound?
Answer: 20 nM

Question: `NC1CCN(c2ccc(Nc3ncc4c5ccccc5n(C5CCCC5)c4n3)nn2)CC1` [Example 308] was tested. Which IC50 (Cdk4/CyclinD1) did it give?
Answer: 11 nM

Question: And the IC50 (Cdk6/CyclinD3)?
Answer: 8 nM

Question: How did the IC50 (Cdk4/CyclinD1) turn out when `CN(C)C1CCN(c2ccc(Nc3ncc4c5ccncc5n([C@@H]5CCNC5)c4n3)nc2)CC1` [Example 349] was run?
Answer: 144 nM

Question: And the IC50 (Cdk6/CyclinD3)?
Answer: 340 nM

Question: How did the IC50 (Cdk4/CyclinD1) turn out when `Clc1nccc2c3cnc(Nc4ccc(N5CCNCC5)cn4)nc3n(C3CCCC3)c12` [Example 152, 8-Chloro-9-cyclopentyl-N-(5-(1-piperazinyl)-2-pyridinyl)-9H-pyrido[4′,3′:4,5]pyrrolo[2,3-d]pyrimidin-2-amine] was run?
Answer: 2 nM

Question: What about the IC50 (Cdk6/CyclinD3) of the same compound?
Answer: 4.3 nM

Question: For `CC1CN(c2ccc(Nc3ncc4c5ccnc(F)c5n(C5CCCC5)c4n3)nc2)CC(C)N1` (centres unmarked) [Example 189, 9-Cyclopentyl-N-(5-(3,5-dimethyl-1-piperazinyl)-2-pyridinyl)-8-fluoro-9H-pyrido[4′,3′:4,5]pyrrolo[2,3-d]pyrimidin-2-amine], which IC50 (Cdk4/CyclinD1) is on record?
Answer: 20 nM

Question: And the IC50 (Cdk6/CyclinD3)?
Answer: 22 nM

Question: `O[C@@H]1CCN(C2CCN(c3ccc(Nc4ncc5c6ccncc6n(C6CCCC6)c5n4)nn3)CC2)C1` [Example 449] was tested. Which IC50 (Cdk4/CyclinD1) did it give?
Answer: 12 nM

Question: What about the IC50 (Cdk6/CyclinD3) of the same compound?
Answer: 36 nM

Question: How did the IC50 (Cdk4/CyclinD1) turn out when `C[C@H](CO)NC1CCN(c2ccc(Nc3ncc4c5ccncc5n(C5CCCC5)c4n3)nc2)CC1` [Example 436, (2R)-2-((1-(6-((9-cyclopentyl-9H-pyrido[4′,3′:4,5]pyrrolo[2,3-d]pyrimidin-2-yl)amino)-3-pyridinyl)-4-piperidinyl)amino)-1-propanol] was run?
Answer: 13 nM

Question: And the IC50 (Cdk6/CyclinD3)?
Answer: 5.1 nM

Question: Which results are given for `COc1cc2c3cnc(Nc4ccc(N5CCNCC5)cn4)nc3n(C3CCCC3)c2cn1` [Example 42, (9-Cyclopentyl-6-methoxy-9H-pyrido[4′,3′:4,5]pyrrolo[2,3-d]pyrimidin-2-yl)-(5-piperazin-1-yl-pyridin-2-yl)-amine]?
Answer: IC50 (Cdk4/CyclinD1): 237 nM; IC50 (Cdk6/CyclinD3): 500 nM
